Data as given in ChEMBL document CHEMBL6109078, “Pyrylium derivatives as outer membrane permeabilizers against MDR gram-negative bacteria via multi-target mode of action” (Eur J Med Chem, 2025).
Active and inactive are the calls of the source. The rule behind the calls is not given here.

Experiments:
Acinetobacter baumannii [1] = test: Antibacterial activity against Acinetobacter baumannii ATCC 19606 assessed as inhibition of bacterial growth by CLSI protocol based method; assay type: functional
Klebsiella pneumoniae [2] = test: Antibacterial activity against Klebsiella pneumoniae BAA ATCC 1706 assessed as inhibition of bacterial growth by CLSI protocol based method; assay type: functional
Pseudomonas aeruginosa [3] = test: Antibacterial activity Pseudomonas aeruginosa PAO1 assessed as inhibition of bacterial growth by CLSI protocol based method; assay type: functional
Acinetobacter baumannii [4] = test: Antibacterial activity against multi-drug resistant Acinetobacter baumannii clinical isolate 2 assessed as inhibition of bacterial growth by CLSI protocol based method; assay type: functional
Acinetobacter baumannii [5] = test: Antibacterial activity against multi-drug resistant Acinetobacter baumannii clinical isolate 4 assessed as inhibition of bacterial growth by CLSI protocol based method; assay type: functional
Acinetobacter baumannii [6] = test: Antibacterial activity against multi-drug resistant Acinetobacter baumannii clinical isolate 51 assessed as inhibition of bacterial growth by CLSI protocol based method; assay type: functional
Acinetobacter baumannii [7] = test: Antibacterial activity against multi-drug resistant Acinetobacter baumannii clinical isolate 1 assessed as inhibition of bacterial growth by CLSI protocol based method; assay type: functional
Acinetobacter baumannii [8] = test: Antibacterial activity against multi-drug resistant Acinetobacter baumannii clinical isolate 43 assessed as inhibition of bacterial growth by CLSI protocol based method; assay type: functional
Escherichia coli [9] = test: Antibacterial activity against multi-drug resistant Escherichia coli clinical isolate 1 assessed as inhibition of bacterial growth by CLSI protocol based method; assay type: functional
Acinetobacter baumannii [10] = test: Synergistic antibacterial activity against multi-drug resistant Acinetobacter baumannii clinical isolate 5 assessed as inhibition of bacterial growth by measuring polymyxin B MIC by checkerboard assay; assay type: functional
Acinetobacter baumannii [11] = test: Synergistic antibacterial activity against multi-drug resistant Acinetobacter baumannii clinical isolate 14 assessed as inhibition of bacterial growth by measuring polymyxin B MIC by checkerboard assay; assay type: functional
Acinetobacter baumannii [12] = test: Synergistic antibacterial activity against multi-drug resistant Acinetobacter baumannii clinical isolate 1 assessed as inhibition of bacterial growth by measuring polymyxin B MIC by checkerboard assay; assay type: functional
Acinetobacter baumannii [13] = test: Synergistic antibacterial activity against multi-drug resistant Acinetobacter baumannii clinical isolate 43 assessed as inhibition of bacterial growth by measuring polymyxin B MIC by checkerboard assay; assay type: functional
Escherichia coli [14] = test: Synergistic antibacterial activity against Escherichia coli ATCC 35218 assessed as inhibition of bacterial growth by measuring polymyxin B MIC by checkerboard assay; assay type: functional
Escherichia coli [15] = test: Synergistic antibacterial activity against multi-drug resistant Escherichia coli clinical isolate 1 assessed as inhibition of bacterial growth by measuring polymyxin B MIC by checkerboard assay; assay type: functional
Acinetobacter baumannii [16] = test: Synergistic antibacterial activity against Acinetobacter baumannii ATCC 19606 assessed as inhibition of bacterial growth in presence of polymyxin B by checkerboard assay; assay type: functional
Acinetobacter baumannii [17] = test: Synergistic antibacterial activity against multi-drug resistant Acinetobacter baumannii clinical isolate 14 assessed as inhibition of bacterial growth in presence of polymyxin B by checkerboard assay; assay type: functional
Acinetobacter baumannii [18] = test: Synergistic antibacterial activity against multi-drug resistant Acinetobacter baumannii clinical isolate 1 assessed as inhibition of bacterial growth in presence of polymyxin B by checkerboard assay; assay type: functional
Acinetobacter baumannii [19] = test: Synergistic antibacterial activity against multi-drug resistant Acinetobacter baumannii clinical isolate 43 assessed as inhibition of bacterial growth in presence of polymyxin B by checkerboard assay; assay type: functional
Escherichia coli [20] = test: Synergistic antibacterial activity against Escherichia coli ATCC 25922 assessed as inhibition of bacterial growth in presence of polymyxin B by checkerboard assay; assay type: functional
Escherichia coli [21] = test: Synergistic antibacterial activity against Escherichia coli ATCC 35218 assessed as inhibition of bacterial growth in presence of polymyxin B by checkerboard assay; assay type: functional
Escherichia coli [22] = test: Synergistic antibacterial activity against multi-drug resistant Escherichia coli clinical isolate 1 assessed as inhibition of bacterial growth in presence of polymyxin B by checkerboard assay; assay type: functional
Escherichia coli [23] = test: Synergistic antibacterial activity against Escherichia coli CG-4 expressing MCR-1 and NDM-1 assessed as inhibition of bacterial growth in presence of polymyxin B by checkerboard assay; assay type: functional
Acinetobacter baumannii [24] = test: Synergistic antibacterial activity against multi-drug resistant Acinetobacter baumannii clinical isolate 43 assessed as fractional inhibitory concentration index in presence of polymyxin B by checkerboard assay; assay type: functional
Escherichia coli [25] = test: Synergistic antibacterial activity against Escherichia coli ATCC 25922 assessed as fractional inhibitory concentration index in presence of polymyxin B by checkerboard assay; assay type: functional
Escherichia coli [26] = test: Synergistic antibacterial activity against multi-drug resistant Escherichia coli clinical isolate 1 assessed as fractional inhibitory concentration index in presence of polymyxin B by checkerboard assay; assay type: functional
Escherichia coli [27] = test: Synergistic antibacterial activity against Escherichia coli CG-4 expressing MCR-1 and NDM-1 assessed as fractional inhibitory concentration index in presence of polymyxin B by checkerboard assay; assay type: functional
Acinetobacter baumannii [28] = test: Synergistic antibacterial activity against Acinetobacter baumannii ATCC 19606 assessed as fractional inhibitory concentration index in presence of amikacin by checkerboard assay; assay type: functional
Acinetobacter baumannii [29] = test: Synergistic antibacterial activity against multi-drug resistant Acinetobacter baumannii clinical isolate 5 assessed as fractional inhibitory concentration index in presence of amikacin by checkerboard assay; assay type: functional
Acinetobacter baumannii [30] = test: Synergistic antibacterial activity against multi-drug resistant Acinetobacter baumannii clinical isolate 14 assessed as fractional inhibitory concentration index in presence of amikacin by checkerboard assay; assay type: functional
Acinetobacter baumannii [31] = test: Synergistic antibacterial activity against multi-drug resistant Acinetobacter baumannii clinical isolate 1 assessed as fractional inhibitory concentration index in presence of gentamycin by checkerboard assay; assay type: functional
Acinetobacter baumannii [32] = test: Synergistic antibacterial activity against multi-drug resistant Acinetobacter baumannii clinical isolate 43 assessed as fractional inhibitory concentration index in presence of amikacin by checkerboard assay; assay type: functional
Acinetobacter baumannii [33] = test: Synergistic antibacterial activity against multi-drug resistant Acinetobacter baumannii clinical isolate 43 assessed as fractional inhibitory concentration index in presence of gentamycin by checkerboard assay; assay type: functional
Escherichia coli [34] = test: Synergistic antibacterial activity against Escherichia coli ATCC 25922 assessed as fractional inhibitory concentration index in presence of amikacin by checkerboard assay; assay type: functional
Escherichia coli [35] = test: Synergistic antibacterial activity against Escherichia coli ATCC 35218 assessed as fractional inhibitory concentration index in presence of amikacin by checkerboard assay; assay type: functional
Escherichia coli [36] = test: Synergistic antibacterial activity against Escherichia coli ATCC 35218 assessed as fractional inhibitory concentration index in presence of gentamycin by checkerboard assay; assay type: functional
Escherichia coli [37] = test: Synergistic antibacterial activity against multi-drug resistant Escherichia coli clinical isolate 1 assessed as fractional inhibitory concentration index in presence of amikacin by checkerboard assay; assay type: functional
Klebsiella pneumoniae [38] = test: Synergistic antibacterial activity against Klebsiella pneumoniae assessed as inhibition of bacterial growth in presence of polymyxin B by checkerboard assay; assay type: functional, organism-based
Acinetobacter baumannii [39] = test: Antibacterial activity against Acinetobacter baumannii ATCC 19606 assessed as inhibition of bacterial growth by measuring decrease in bacterial count at 6.25 to 50 microg/ml measured after 12 hrs by time-kill kinetics analysis; assay type: functional; conditions: dose 6.25-50 µg/ml
Pseudomonas aeruginosa [40] = test: Synergistic antibacterial activity against Pseudomonas aeruginosa assessed as inhibition of bacterial growth in presence of polymyxin B by checkerboard assay; assay type: functional, organism-based
Pseudomonas aeruginosa [41] = test: Synergistic antibacterial activity against Pseudomonas aeruginosa assessed as inhibition of bacterial growth in presence of aminoglycoside by checkerboard assay; assay type: functional, organism-based
Bacteria = test: Binding affinity to His-tagged LptA (unknown origin) extracted from Escherichia coli BL21 (DE3) cells by BLI analysis

Structure (SMILES): CN1CCOc2cc(/C=C/c3cc(C(C)(C)C)[o+]c(C(C)(C)C)c3)ccc21.O=S(=O)([O-])C(F)(F)F
- MIC (Acinetobacter baumannii [1]): 50 µg/mL
- MIC (Klebsiella pneumoniae [2]): > 100 µg/mL
- MIC (Pseudomonas aeruginosa [3]): > 100 µg/mL
- MIC (Acinetobacter baumannii [4]): 100 µg/mL
- MIC (Acinetobacter baumannii [5]): 100 µg/mL
- MIC (Acinetobacter baumannii [6]): 50 µg/mL
- MIC (Acinetobacter baumannii [7]): 100 µg/mL
- MIC (Acinetobacter baumannii [8]): 100 µg/mL
- MIC (Escherichia coli [9]): ≥ 100 µg/mL
- MIC (Acinetobacter baumannii [10]): 0.006 µg/mL
- MIC (Acinetobacter baumannii [11]): 0.012 µg/mL
- MIC (Acinetobacter baumannii [12]): 0.05 µg/mL
- MIC (Acinetobacter baumannii [13]): 1 10^-4 ug/ml
- MIC (Escherichia coli [14]): 63 10^-4 ug/ml
- MIC (Escherichia coli [15]): 0.2 µg/mL
- MIC (Acinetobacter baumannii [16]): 6.25 µg/mL
- MIC (Acinetobacter baumannii [17]): 12.5 µg/mL
- MIC (Acinetobacter baumannii [18]): 12.5 µg/mL
- MIC (Acinetobacter baumannii [19]): 25 µg/mL
- MIC (Escherichia coli [20]): 12.5 µg/mL
- MIC (Escherichia coli [21]): 6.25 µg/mL
- MIC (Escherichia coli [22]): 12.5 µg/mL
- MIC (Escherichia coli [23]): 3.13 µg/mL
- fractional inhibitory concentration index (FICI) (Acinetobacter baumannii [24]): <0.25
- fractional inhibitory concentration index (FICI) (Escherichia coli [25]): 0.266
- fractional inhibitory concentration index (FICI) (Escherichia coli [26]): 0.047
- fractional inhibitory concentration index (FICI) (Escherichia coli [27]): 0.156
- fractional inhibitory concentration index (FICI) (Acinetobacter baumannii [28]): 0.125
- fractional inhibitory concentration index (FICI) (Acinetobacter baumannii [29]): 0.125
- fractional inhibitory concentration index (FICI) (Acinetobacter baumannii [30]): 0.125
- fractional inhibitory concentration index (FICI) (Acinetobacter baumannii [31]): 0.125
- fractional inhibitory concentration index (FICI) (Acinetobacter baumannii [32]): 0.125
- fractional inhibitory concentration index (FICI) (Acinetobacter baumannii [33]): 0.125
- fractional inhibitory concentration index (FICI) (Escherichia coli [34]): 0.125
- fractional inhibitory concentration index (FICI) (Escherichia coli [35]): 0.125
- fractional inhibitory concentration index (FICI) (Escherichia coli [36]): 0.125
- fractional inhibitory concentration index (FICI) (Escherichia coli [37]): 0.125
- Activity (Klebsiella pneumoniae [38]): inactive
- Activity (Acinetobacter baumannii [39]): <6 log10CFU/ml
- Activity (Pseudomonas aeruginosa [40]): inactive
- Activity (Pseudomonas aeruginosa [41]): inactive
- Activity (Bacteria): inactive
